# Results as given in patent publication US20260027243A1, “AMPHIPHILIC COMPOUNDS FOR ATTENUATING NEUROTOXICITY OF AMYLOID-beta OLIGOMERS AND DIAGNOSTIC METHODS” (THE BOARD OF TRUSTEES OF THE UNIVERSITY OF ILLINOIS, priority 2022, published 2026).
# Read-outs that look alike come from different tables or passages of the source.
# What was measured:
# [1] = biological target: Aβ oligomers; conditions: cited from earlier work
# [2] = Log D by octanol-PBS partition; type: physicochemical; conditions: DCM compounds
# Protocol: Log D measurements. The Log D value was measured following a published procedure using slight modifications. In general, compounds in 0.5 mL octanol was subjected to partition with 0.5 mL octanol-saturated PBS. The whole mixture was stirred vigorously for 5 min, and centrifuged at 2,000 rpm for 5 min. The top octanol layer was separated for later fluorescence measurement. The remaining PBS layer was partitioned with 0.5 mL PBS-saturated octanol, and the second top octanol layer was then separated after vigorous stirring and centrifuging at 2,000 rpm for another 5 min. The two octanol layers' fluorescence spectra were recorded. The log D value was calculated by the fluorescence intensity ratio at the compounds' emission wavelength for the above two octanol extractions.
# [3] = biological target: T1, Aβ42 fibrils (Homo sapiens, UniProt P05067); test: Fluorescence saturation binding assay with Aβ42 fibrils; conditions: read-out: Kd, Fibrils
# T1 construct: commercial Aβ42 monomer powder (from GL biochem); purchased GL biochem
# Protocol: Preparation of the Aβ42 Fibrils and Aβ42 Oligomers. Aβ42 fibrils: 1 mg of commercial Aβ42 monomer powder (from GL biochem) was dissolved in 1 mL 1,1,1,3,3,3-hexafluoro-2-propanol (HFIP) at room temperature and incubated for 1 h. The resulting solution was divided equally into two Eppendorf tubes. The solution in each Eppendorf tube containing 0.5 mg Aβ42 monomer was then evaporated overnight and dried by vacuum centrifuge to generate monomeric films. […] Aβ42 fibrils solution was prepared by dissolving the 0.5 mg monomeric films in 1.1 mL PBS buffer (with final DMSO concentration less than 1%) and stirring at 37° C. for 3 days.
# (§1) In Vitro Saturation Binding Studies with Aβ42 Fibrils and Aβ42 Oligomers. To a solution of increasing concentrations of compounds, a fixed concentration of the generated aggregated Aβ42 fibrils or Aβ42 oligomers solutions (5 to 15 NM) was added to yield a total volume of 100 μL. Nonspecific binding was determined […]. The mixture was incubated for 15 min at room temperature. All fluorescence data were obtained on a SpectraMax M2e plate reader (Molecular Devices). The fluorescent intensity was measured at the corresponding emission wavelength of each compound, and the Kd binding curves were generated by GraphPad Prism 8.0 with one site-specific binding model. Equation: Y=Bmax*X/(Kd+X).
# [4] = biological target: T2, Aβ42 oligomers (Homo sapiens, UniProt P05067); test: Fluorescence saturation binding assay with Aβ42 oligomers; conditions: for Kd: read-out: Kd, Oligomers; for binding affinity to oligomers compared with fibrils (Kd comparison): amphiphilic ZY compounds
# T2 construct: commercial Aβ42 monomer powder (from GL biochem); purchased GL biochem
# Protocol: Aβ42 oligomers: The 0.5 mg monomeric films were dissolved in 1.1 mL PBS buffer (with final DMSO concentration less than 1%) and incubated at 4° C. overnight. The resulting solution was then centrifuged at 3000 rpm for 15 mins to remove the insoluble aggregates. The clear supernatant was then used for the following experiments. Aβ42 oligomers concentration was checked by measuring the absorbance of the supernatant at 280 nm.
# as §1
# [5] = tested on: Cu^2+-Aβ42-induced toxicity in Neuro2A cells; test: Cu2+-Aβ42-induced toxicity, Alamar blue cell viability; type: cell-based, mouse; conditions: [Aβ42]=40 μM, [Cu^2+]=40 μM, compound 10 μM (ZY-12-OMe 5 μM)
# Protocol: FIG. 6. Cell viability results upon incubation of Neuro2A cells with monomeric Aβ42 in the presence or absence of metal ions and amphiphilic compounds. Concentrations: [Aβ42]=40 μM, [Cu^2+]=40 μM, [ZY-12-MT]=[ZY-15-OMe]=[ZY-15-MT]=[ZY-17-MT]=[ZY-5-OMe]=[ZY-5-MT]=[ZY-5-DT]=10 μM, [ZY-12-OMe]=5 μM. The error bars represent the standard deviation from five independent experiments, and the statistical analysis was evaluated according to one-way ANOVA (*p<0.05).
# For the Cu^2+-Ap-induced toxicity studies, cells treated were monomeric Aβ42, Cu^2+, monomeric Aβ42+Cu^2+, and monomeric Aβ42+Cu^2++ compounds, respectively. After 40 h incubation, Alamar Blue solution (10 μL) was added, and the cells were incubated for another 90 min at 37° C. The fluorescence intensity of each well was measured at 590 nm (excitation wavelength=560 nm).
# [6] = tested on: mouse neuroblastoma N2a cells; test: Alamar blue cytotoxicity in N2a cells; type: cell-based; conditions: for relative cytotoxicity: comparison among compounds
# Protocol: Cytotoxicity Studies. Alamar Blue assay was chosen for the cytotoxicity studies. Mouse neuroblastoma Neuro2A (N2A) cells were grown with DMEM/10% FBS in a petri dish at 37° C. in a humidified atmosphere with 5% CO2. Then N2A cells were seeded in a 96-well plate (1.0×10^4/well). After 24 h incubation, cell media was changed to DMEM/N-2, and N2A cells were incubated for another 1 h. Then the cells were treated with different concentrations of compounds for 40 h, Alamar Blue solution (10 μL) was added, and the cells were incubated for another 90 min at 37° C. The fluorescence intensity of each well was measured at 590 nm (excitation wavelength=560 nm).
# T1 sequence (P05067 672-713 limits assumed): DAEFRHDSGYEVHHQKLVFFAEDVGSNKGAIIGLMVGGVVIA
# T2 sequence (P05067 672-713 limits assumed): as above
Structure (SMILES),"Kd ([3]; Table 1, amphiphilic compounds) [µM]","Kd ([4]; Table 1, amphiphilic compounds) [µM]",binding affinity to oligomers compared with fibrils (Kd comparison) [4],also measured
CCOc1cccc(C=Cc2cc(C)c3n2[B-](F)(F)[N+]2=C(CCC(=O)OCC(Cl)(Cl)Cl)C=CC2=C3)c1O [BD-Oligo],–,–,–,Kd ([1]; reported oligomer-selective probes): 0.4 µM
CCN(CC)c1ccc(/C=C/C2=[O+][B-](F)(F)OC(/C=C/c3ccc(N(CC)CC)nc3)=C2CCCOc2c(C)cccc2C)cn1 [CRANAD-102],–,–,–,Kd ([1]; reported values): 0.0075 µM
"CN1CCN(C)CCN(Cc2cc(/C=C/C3=CC(=C(C#N)C#N)c4ccccc4O3)cc(CN3CCN(C)CCN(C)CC3)c2O)CC1 [DCM-OH-1-DT, (E)-2-(2-(3,5-bis((4,7-dimethyl-1,4,7-triazonan-1-yl)methyl)-4-hydroxystyryl)-4H-chromen-4-ylidene)malononitrile]",–,–,–,"logD [2]: 1.51 ± 0.018; Kd ([3]; Table 3, DCM compounds): 1.85 ± 0.19 µM; Kd ([4]; Table 3, DCM compounds): 2.88 ± 0.54 µM"
"CN1CCN(C)CCN(Cc2cc(/C=C/C3=CC(=C(C#N)C#N)c4ccccc4O3)ccc2O)CC1 [DCM-OH-1-MT, (E)-2-(2-(3-((4,7-dimethyl-1,4,7-triazonan-1-yl)methyl)-4-hydroxystyryl)-4H-chromen-4-ylidene)malononitrile]",–,–,–,"logD [2]: 1.65 ± 0.06; Kd ([3]; Table 3, DCM compounds): 0.58 ± 0.07 µM; Kd ([4]; Table 3, DCM compounds): 0.67 ± 0.19 µM"
N#CC(C#N)=C1C=C(/C=C/c2ccc(O)cc2)Oc2ccccc21 [DCM-OH-1],–,–,–,logD [2]: 1 ± 0.04
"CN1CCN(C)CCN(Cc2cc(/C=C/c3ccc(-c4ccc(N(C)C)cc4)s3)cc(CN3CCN(C)CCN(C)CC3)c2O)CC1 [ZY-5-DT, (E)-2,6-bis((4,7-dimethyl-1,4,7-triazonan-1-yl)methyl)-4-(2-(5-(4-(dimethylamino)phenyl)thiophen-2-yl)vinyl)phenol]",1.67 ± 0.19,2.09 ± 0.36,–,–
"CN1CCN(C)CCN(Cc2cc(/C=C/c3ccc(-c4ccc(N(C)C)cc4)s3)ccc2O)CC1 [ZY-5-MT, (E)-2-((4,7-dimethyl-1,4,7-triazonan-1-yl)methyl)-4-(2-(5-(4-(dimethylamino)phenyl)thiophen-2-yl)vinyl)phenol]",1.82 ± 0.13,0.46 ± 0.06,higher binding affinity to oligomers over fibrils,selectivity to Aβ oligomers over Aβ fibrils ([4]; ratio of Kd values): 3.9 times
"CN1CCN(C)CCN(Cc2cc(-c3ccc(/C=C/c4ccc(N(C)C)cc4)s3)ccc2O)CC1 [ZY-12-MT, (E)-2-((4,7-dimethyl-1,4,7-triazonan-1-yl)methyl)-4-(5-(4-(dimethylamino)styryl)thiophen-2-yl)phenol]",4.19 ± 0.87,6.27 ± 1.01,–,effect on cell viability under Cu^2+-Aβ42 toxicity [5]: significantly increase cell viability
"COc1cc(-c2ccc(/C=C/c3ccc(N(C)C)cc3)s2)cc(CN2CCN(C)CCN(C)CC2)c1O [ZY-12-OMe, (E)-2-((4,7-dimethyl-1,4,7-triazonan-1-yl)methyl)-4-(5-(4-(dimethylamino)styryl)thiophen-2-yl)-6-methoxyphenol]",0.39 ± 0.04,0.32 ± 0.04,higher binding affinity to oligomers over fibrils,cell viability ([6]; at 5 μM): more than 75%; cell viability ([6]; at 10 μM): less than 50%; relative cytotoxicity [6]: higher citotoxicity than others
"CN1CCN(C)CCN(Cc2cc(/C=C/c3ccc(-c4ccc(C=O)cc4)s3)cc(CN3CCN(C)CCN(C)CC3)c2O)CC1 [ZY-15-DT, (E)-4-(5-(3,5-bis((4,7-dimethyl-1,4,7-triazonan-1-yl)methyl)-4-hydroxystyryl)thiophen-2-yl)benzaldehyde]",1.27 ± 0.1,4.55 ± 0.32,–,–
"COc1cc(OC)cc(-c2ccc(/C=C/c3cc(CN4CCN(C)CCN(C)CC4)c(O)c(CN4CCN(C)CCN(C)CC4)c3)cc2)c1 [ZY-17-DT, (E)-4-(2-(3′,5′-dimethoxy-[1,1′-biphenyl]-4-yl)vinyl)-2,6-bis((4,7-dimethyl-1,4,7-triazonan-1-yl)methyl)phenol]",2.25 ± 0.46,1.03 ± 0.2,higher binding affinity to oligomers over fibrils,relative cytotoxicity [6]: higher citotoxicity than others
"COc1cc(OC)cc(-c2ccc(/C=C/c3cc(CN4CCN(C)CCN(C)CC4)c(O)c(OC)c3)cc2)c1 [ZY-17-OMe, (E)-4-(2-(3′,5′-dimethoxy-[1,1′-biphenyl]-4-yl)vinyl)-2-((4,7-dimethyl-1,4,7-triazonan-1-yl)methyl)-6-methoxyphenol]",0.18 ± 0.02,0.12,higher binding affinity to oligomers over fibrils,relative cytotoxicity [6]: the highest toxicity

# Further lines, with some results ahead:
"Kd ([3]; Table 1, amphiphilic compounds) [µM]","Kd ([4]; Table 1, amphiphilic compounds) [µM]",Structure (SMILES),binding affinity to oligomers compared with fibrils (Kd comparison) [4],also measured
0.68 ± 0.1,1.04 ± 0.15,"COc1cc(/C=C/c2ccc(-c3ccc(N(C)C)cc3)s2)cc(CN2CCN(C)CCN(C)CC2)c1O [ZY-5-OMe, (E)-2-((4,7-dimethyl-1,4,7-triazonan-1-yl)methyl)-4-(2-(5-(4-(dimethylamino)phenyl)thiophen-2-yl)vinyl)-6-methoxyphenol]",–,effect on cell viability under Cu^2+-Aβ42 toxicity [5]: significantly increase cell viability
1.38 ± 0.24,0.67 ± 0.15,"CN1CCN(C)CCN(Cc2cc(-c3ccc(/C=C/c4ccc(N(C)C)cc4)s3)cc(CN3CCN(C)CCN(C)CC3)c2O)CC1 [ZY-12-DT, (E)-2,6-bis((4,7-dimethyl-1,4,7-triazonan-1-yl)methyl)-4-(5-(4-(dimethylamino)styryl)thiophen-2-yl)phenol]",higher binding affinity to oligomers over fibrils,relative cytotoxicity [6]: higher citotoxicity than others
0.94 ± 0.07,2.08 ± 0.34,"COc1cc(OC)cc(-c2ccc(/C=C/c3ccc(O)c(CN4CCN(C)CCN(C)CC4)c3)cc2)c1 [ZY-17-MT, (E)-4-(2-(3′,5′-dimethoxy-[1,1′-biphenyl]-4-yl)vinyl)-2-((4,7-dimethyl-1,4,7-triazonan-1-yl)methyl)phenol]",–,–
